Measured values taken from patent publication US20230381321A1, “CAMPTOTHECIN CONJUGATES” (priority 2022, published 2023).
Like-named read-outs stand apart in the source and are kept apart here.

Tests used:
Type in all cases: cell-based
[1] = system: anaplastic large cell lymphoma cells (DELBVR); test: In vitro potency (CellTiter-Glo, 96 h) on DELBVR; conditions: 96 h, read-out: DELBVR IC50
Method: (§1) In vitro potency was assessed on multiple cancer cell lines. All cell lines were authenticated by STR profiling at IDEXX Bioresearch and cultured for no more than 2 months after resuscitation. Cells cultured in log-phase growth were seeded for 24 hours in 96-well plates containing […] RPMI 1640 supplemented with 20% FBS. Serial dilutions of antibody-drug conjugates in cell culture media were prepared at 4x working concentrations, and 50 μL of each dilution was added to the 96-well plates. Following addition of test articles, cells were incubated with test articles for 4 days at […]. After 96 hours, growth inhibition was assessed by CellTiterGlo® (Promega, Madison, WI) and luminescence was measured on a plate reader.
(§2) Cell viability was determined by CellTiter-Glo staining after 96h exposure to ADC. ND=Not Determined. In the following tables, “Ex_” refers to a drug linker number. For example, “Ag4-Ex_4a” refers to a conjugate of an Ag4 antibody with drug linker 4a.

[2] = system: B-lymphocyte cancer cells (SU-DHL4); test: In vitro potency (CellTiter-Glo, 96 h) on SU-DHL4; conditions: Homo sapiens, SU-DHL-4, 96 h, read-out: SU-DHL-4 IC50
Method: as §1, §2

[3] = In vitro potency (CellTiter-Glo, 96 h) on Ls174T; conditions: Homo sapiens, LS174T, read-out: Ls174T IC50
Method: as §1, §2

[4] = system: non-small-cell lung cancer cells (Calu1); test: In vitro potency (CellTiter-Glo, 96 h) on Calu1; conditions: Homo sapiens, Calu-1, 96 h, read-out: Calu1 IC50
Method: as §1, §2

[5] = system: renal carcinoma cells (786-O); test: In vitro potency (CellTiter-Glo, 96 h) on 786-O; conditions: Homo sapiens, 786-0, 96 h, read-out: 786-O IC50
Method: as §1, §2

[6] = system: anaplastic large cell lymphoma cells (Karpas299); test: In vitro potency (CellTiter-Glo, 96 h) on Karpas299; conditions: Homo sapiens, KARPAS-299, 96 h, read-out: Karpas299 IC50
Method: as §1, §2

[7] = system: anaplastic large cell lymphoma cells (DEL); test: In vitro potency (CellTiter-Glo, 96 h) on DEL; conditions: 96 h, read-out: DEL IC50
Method: as §1, §2

[8] = system: breast cancer cells (MDA-MB-231); test: In vitro potency (CellTiter-Glo, 96 h) on MDA-MB-231; conditions: Homo sapiens, MDA-MB-231, 96 h, read-out: MDAMB 231 IC50
Method: as §1, §2

[9] = system: Hodgkin's lymphoma cells (L540cy); test: In vitro potency (CellTiter-Glo, 96 h) on L540cy; conditions: L540cy, 96 h, read-out: L540cy IC50
Method: as §1, §2

melanoma cells (A2058) = test: In vitro potency (CellTiter-Glo, 96 h) on A2058; conditions: Homo sapiens, A2058, 96 h, read-out: A2058 IC50
Method: as §1, §2

[10] = system: acute myeloid leukemia cells (MOLM-13); test: In vitro potency (CellTiter-Glo, 96 h) on MOLM-13; conditions: Homo sapiens, MOLM-13, 96 h, read-out: MOLM-13 IC50
Method: as §1, §2

[11] = system: pancreatic cancer cells (BxPC3); test: In vitro potency (CellTiter-Glo, 96 h) on BxPC3; conditions: Homo sapiens, BXPC-3, 96 h, read-out: BxPC3 IC50
Method: as §1, §2

[12] = CPT free drugs, CellTiter-Glo after 96 h exposure

| SMILES | IC50 [1] [nM] | IC50 [2] [nM] | IC50 ([3]; 96 h) [nM] | IC50 [5] [nM] | IC50 [6] [nM] | IC50 [7] [nM] | IC50 [8] [nM] | IC50 [9] [nM] | IC50 [10] [nM] | IC50 [1, 12] [nM] | IC50 [2, 12] [nM] | IC50 [3, 12] [nM] | IC50 [6, 12] [nM] | IC50 [7, 12] [nM] | IC50 [8, 12] [nM] | IC50 [9, 12] [nM] | IC50 (melanoma cells (A2058); [12]) [nM] | IC50 [10, 12] [nM] | IC50 [11] [nM] | also measured |
| --- | --- | --- | --- | --- | --- | --- | --- | --- | --- | --- | --- | --- | --- | --- | --- | --- | --- | --- | --- | --- |
| CC[C@@]1(O)C(=O)OCc2c1cc1n(c2=O)Cc2c-1nc1cc3c(cc1c2CNCCOC)OCO3 [Compound 7ag] | 0.3 | 0.8 | 3 | 0.9 | 1 | 0.3 | 9 | 0.9 | 2 | – | – | – | – | – | – | – | – | – | – | IC50 [4]: 6 nM; IC50 (melanoma cells (A2058)): 0.6 nM |
| CC[C@@]1(O)C(=O)OCc2c1cc1n(c2=O)Cc2c-1nc1cc(F)c(C)c(-c3ccc(CO)s3)c1c2CN [Compound 6e] | – | – | – | – | – | – | – | – | – | – | – | – | – | – | – | – | – | – | – | IC50 [4]: 155 nM |
| CC[C@@]1(O)C(=O)OCc2c1cc1n(c2=O)Cc2c-1nc1cc(F)c(SC)cc1c2CN [Compound 2at] | – | – | – | – | – | – | – | – | – | 8 | 23 | 30 | 38 | 11 | 21 | 4 | 20 | 264 | – | IC50 [5, 12]: 50 nM; IC50 [11, 12]: 84 nM |
| CC[C@@]1(O)C(=O)OCc2c1cc1n(c2=O)Cc2c-1nc1cc(F)c(C)c(-c3cccs3)c1c2CN [Compound 6n] | – | – | – | – | – | – | – | – | – | 7 | 13 | 47 | 24 | 6 | 70 | 17 | 16 | 30 | – | IC50 [4, 12]: 56 nM |
| CC[C@@]1(O)C(=O)OCc2c1cc1n(c2=O)Cc2c-1nc1cc(F)c(C)c(-c3ccco3)c1c2CN [Compound 6o] | – | – | – | – | – | – | – | – | – | 3 | 4 | 9 | 8 | 2 | 35 | 5 | 4 | 14 | – | IC50 [4, 12]: 26 nM |
| CC[C@@]1(O)C(=O)OCc2c1cc1n(c2=O)Cc2c-1nc1cc(F)c(C)c(-c3ccoc3)c1c2CN [Compound 6p] | – | – | – | – | – | – | – | – | – | 2 | 1 | 5 | 3 | 0.9 | 10 | 2 | 2 | 3 | – | IC50 [4, 12]: 8 nM |
| CC[C@@]1(O)C(=O)OCc2c1cc1n(c2=O)Cc2c-1nc1cc3c(cc1c2CNC1CCOC1)OCO3 (some centres unmarked) [Compound 7ah] | 0.2 | 0.5 | 2 | 0.8 | 1 | 0.2 | 6 | 0.8 | 0.9 | – | – | – | – | – | – | – | – | – | – | IC50 [4]: 10 nM; IC50 (melanoma cells (A2058)): 0.5 nM |
| CC[C@@]1(O)C(=O)OCc2c1cc1n(c2=O)Cc2c-1nc1cc3c(cc1c2CNC(=O)CO)CCO3 [Compound 15c, (S)-N-((12-ethyl-12-hydroxy-8,11-dioxo-2,3,6,9,11,12-hexahydro-8H-furo [3,2 g]pyrano[3′,4′:6,7]indolizino[1,2-b]quinolin-5-yl)methyl)-2-hydroxyacetamide] | – | – | – | – | – | – | – | – | – | 3 | 3 | > 1000 | 22 | 1 | 69 | 10 | 6 | 18 | – | IC50 [4, 12]: 184 nM; IC50 [5, 12]: 22 nM |
| C=Cc1c(C)c(F)cc2nc3c(c(CN)c12)Cn1c-3cc2c(c1=O)COC(=O)[C@]2(O)CC [Compound 2am, (S)-11-(aminomethyl)-4-ethyl-8-fluoro-4-hydroxy-9-methyl-10-vinyl-1,12-dihydro-14H-pyrano[3′,4′:6,7]indolizino[1,2-b]quinoline-3,14(4H)-dione] | 0.3 | 1 | 5 | 2 | 2 | 0.3 | 5 | 1 | 2 | – | – | – | – | – | – | – | – | – | 4 | – |
| CC[C@@]1(O)C(=O)OCc2c1cc1n(c2=O)Cc2c-1nc1cc(Br)c(OC)c(F)c1c2CN [Compound 2ah] | – | – | – | – | – | – | – | – | – | 11 | 29 | 152 | 65 | 12 | 149 | 54 | – | 125 | – | IC50 [5, 12]: 108 nM; IC50 [11, 12]: 199 nM |
| CC[C@@]1(O)C(=O)OCc2c1cc1n(c2=O)Cc2c-1nc1cc3c(cc1c2CNCCN1CCNCC1)OCO3 [Compound 8b] | 13 | 17 | 111 | 102 | 62 | 8 | 260 | 56 | 91 | – | – | – | – | – | – | – | – | – | 51 | – |
| CC[C@@]1(O)C(=O)OCc2c1cc1n(c2=O)Cc2c-1nc1cc3c(cc1c2CNC[C@H](O)CN1CCCCC1)OCO3 [Compound 7aa] | 19 | 19 | 188 | 131 | 63 | 17 | 228 | 51 | 69 | – | – | – | – | – | – | – | – | – | 66 | – |
| CC[C@@]1(O)C(=O)OCc2c1cc1n(c2=O)Cc2c-1nc1cc(F)c(OC)c(Br)c1c2CN [Compound 2ad] | – | – | – | – | – | – | – | – | – | 1 | 4 | 17 | 7 | 1 | 15 | 4 | – | 5 | – | IC50 [5, 12]: 9 nM; IC50 [11, 12]: 22 nM |
| CC[C@@]1(O)C(=O)OCc2c1cc1n(c2=O)Cc2c-1nc1cc(F)c(C)c(C#N)c1c2CN [Compound 16] | 1 | 3 | 6 | 8 | 7 | 1 | 38 | 5 | 30 | – | – | – | – | – | – | – | – | – | – | IC50 [4]: 67 nM; IC50 (melanoma cells (A2058)): 3 nM |
| CC[C@@]1(O)C(=O)OCc2c1cc1n(c2=O)Cc2c-1nc1cc3c(cc1c2CNC(=O)CN)CCO3 [Compound 13] | 21 | 18 | 195 | 139 | 126 | 8 | 177 | 45 | 88 | – | – | – | – | – | – | – | – | – | 94 | – |
| CC[C@@]1(O)C(=O)OCc2c1cc1n(c2=O)Cc2c-1nc1cc3c(cc1c2CNC1CCNCC1)OCO3 [Compound 8e] | 10 | 25 | 109 | 104 | 72 | 7 | 102 | 36 | 89 | – | – | – | – | – | – | – | – | – | 62 | – |
| CC[C@@]1(O)C(=O)OCc2c1cc1n(c2=O)Cc2c-1nc1cc(F)c(C)c(C3=CCSCC3)c1c2CN [Compound 6m] | – | – | – | – | – | – | – | – | – | 6 | 5 | 22 | 12 | 2 | 38 | 8 | 7 | 7 | – | IC50 [4, 12]: 35 nM |
| CC[C@@]1(O)C(=O)OCc2c1cc1n(c2=O)Cc2c-1nc1cc3c(cc1c2CNC[C@H](O)CO)OCO3 [Compound 7n] | 6 | 21 | 39 | 66 | 57 | 5 | 96 | 23 | 137 | – | – | – | – | – | – | – | – | – | 47 | – |
